# Results published in patent US11526981B2, “Ecotoxicity evaluation analyzing device including microalgae image analysis program installed therein, and method thereof” (KOREA INSTITUTE OF OCEAN SCIENCE & TECHNOLOGY, priority 2017, dated 2022).
# Tested on: dunaliella tertiolecta
# Test: growth inhibition test (72 h) using microalgae, ecotoxicity evaluation
# Type: cell-based
# Details: 20° C.
# Method: The used microalgae 1 is dunaliella tertiolecta, and when exposed to stress (toxicity), transforms the state from the original form 51 into a cyst form 61 and loses mobility.
# Acetone was used as a toxic substance. In a test method using an exponential formula, the temperature was maintained at 20° C., and the Irradiation was continuously performed using a white fluorescent lamp with an illuminance of 6,000 to 7,000 lx.
# Three replicated plots were inoculated with an initial concentration of 20,000 cells/mL, and the shaking speed was set to 100 r/min. Non-toxic filtered seawater containing nutrient medium was used as a dilution water, and growth inhibition was analyzed for 72 hours.
# The experimental conditions in examples of the ecotoxicity evaluation analysis device 100 installed with the microalgae image analysis program therein according to the present invention and the analysis method using the same are shown in Table 2.
# Referring to FIG. 5, in an example of the microalgae analysis method using the ecotoxicity evaluation analysis device 100 installed with the microalgae image analysis program therein according to the present invention, the performance of the technology of the present invention was verified using representative SR chamber and hemocytometer of the microalgae analysis method as controls. Here, the concentration of the microalgae 1 contained in the sample was analyzed every 24 hours. Cells were dyed in the two controls, whereas measurements were performed without dyeing the cells in the present technology. In the controls, a microscope (200×) was used, and a microalgae 1 counting was performed manually by an experienced expert.
# Referring to FIG. 6, a growth inhibition test using microalgae 1 is performed to obtain a 50% effective concentration (EC50) of a toxic substance. The 50% effective concentration is treated as an important data base for various toxicity analysis. […]
compound,measurement,setting,value
CC(C)=O [acetone],50% effective concentration (EC50),"counting by SR chamber (manual, microscope, dyed cells)",25.6 mL/L
same,50% effective concentration (EC50),"counting by developed analyzer (present invention technology, CMOS shadow image, no dyeing)",24.2 mL/L
same,50% effective concentration (EC50),"counting by hemocytometer (manual, microscope, dyed cells)",24.9 mL/L
